# Data taken from ChEMBL document CHEMBL4507320, “Data for DCP probe NVS-MALT1” (2021).
# Tests used:
# [1] = target: Proto-oncogene tyrosine-protein kinase Src (Homo sapiens) (UniProt P12931); conditions: Compound concentration 1000.0 nM
# [2] = target: Beta-3 adrenergic receptor (Homo sapiens) (UniProt P13945); conditions: Compound concentration 10.0 uM
# [3] = target: Cyclin-dependent kinase 11A (Homo sapiens) (UniProt Q9UQ88); conditions: Compound concentration 1000.0 nM
# [4] = target: Tyrosine-protein kinase JAK1 (Homo sapiens) (UniProt P23458); conditions: Compound concentration 1000.0 nM
# [5] = target: Glycogen synthase kinase-3 beta (Homo sapiens) (UniProt P49841); conditions: Compound concentration 1000.0 nM
# Rattus norvegicus = organism: Rattus norvegicus; conditions: Compound concentration 10.0 uM
# [6] = target: Serine/threonine-protein kinase tousled-like 1 (Homo sapiens) (UniProt Q9UKI8); conditions: Compound concentration 1000.0 nM
# [7] = target: Ephrin type-A receptor 5 (Homo sapiens) (UniProt P54756); conditions: Compound concentration 1000.0 nM
# [8] = target: Tyrosine-protein kinase BTK (Homo sapiens) (UniProt Q06187); conditions: Compound concentration 1000.0 nM
# [9] = target: Aurora kinase C (Homo sapiens) (UniProt Q9UQB9); conditions: Compound concentration 1000.0 nM
# [10] = target: Mitogen-activated protein kinase 4 (Homo sapiens) (UniProt P31152); conditions: Compound concentration 1000.0 nM
# [11] = test system: Epidermal growth factor receptor (Homo sapiens), P00533 [G719C]; conditions: Compound concentration 1000.0 nM
# [12] = target: 5-hydroxytryptamine receptor 1B (Homo sapiens) (UniProt P28222); conditions: Compound concentration 10.0 uM
# [13] = target: Mitogen-activated protein kinase 9 (Homo sapiens) (UniProt P45984); conditions: Compound concentration 1000.0 nM
# [14] = target: 5-hydroxytryptamine receptor 3A (Homo sapiens) (UniProt P46098); conditions: Compound concentration 10.0 uM
# [15] = target: NUAK family SNF1-like kinase 1 (Homo sapiens) (UniProt O60285); conditions: Compound concentration 1000.0 nM
# [16] = target: Serine/threonine-protein kinase 25 (Homo sapiens) (UniProt O00506); conditions: Compound concentration 1000.0 nM
# [17] = target: Fibroblast growth factor receptor 4 (Homo sapiens) (UniProt P22455); conditions: Compound concentration 1000.0 nM
# [18] = target: Epidermal growth factor receptor (Homo sapiens) (UniProt P00533); conditions: Compound concentration 1000.0 nM
# [19] = target: Cytoplasmic tyrosine-protein kinase BMX (Homo sapiens) (UniProt P51813); conditions: Compound concentration 1000.0 nM
# [20] = target: Mitogen-activated protein kinase kinase kinase kinase 3 (Homo sapiens) (UniProt Q8IVH8); conditions: Compound concentration 1000.0 nM
# [21] = target: Phosphorylase b kinase gamma catalytic chain, skeletal muscle/heart isoform (Homo sapiens) (UniProt Q16816); conditions: Compound concentration 1000.0 nM
# [22] = target: Hepatocyte growth factor receptor (Homo sapiens) (UniProt P08581); conditions: Compound concentration 1000.0 nM
# [23] = target: D(1B) dopamine receptor (Homo sapiens) (UniProt P21918); conditions: Compound concentration 10.0 uM
# [24] = test system: Tyrosine-protein kinase ABL1 (Homo sapiens), P00519 [Q252H]; conditions: Compound concentration 1000.0 nM
# [25] = target: Dual specificity tyrosine-phosphorylation-regulated kinase 1B (Homo sapiens) (UniProt Q9Y463); conditions: Compound concentration 1000.0 nM
# [26] = target: SRSF protein kinase 3 (Homo sapiens) (UniProt Q9UPE1); conditions: Compound concentration 1000.0 nM
# [27] = target: Serine/threonine-protein kinase D1 (Homo sapiens) (UniProt Q15139); conditions: Compound concentration 1000.0 nM
# [28] = target: Maternal embryonic leucine zipper kinase (Homo sapiens) (UniProt Q14680); conditions: Compound concentration 1000.0 nM
# [29] = test system: Epidermal growth factor receptor (Homo sapiens), P00533 [UNDEFINED MUTATION]; conditions: Compound concentration 1000.0 nM
# [30] = target: Protein kinase C delta type (Homo sapiens) (UniProt Q05655); conditions: Compound concentration 1000.0 nM
# [31] = target: NUAK family SNF1-like kinase 2 (Homo sapiens) (UniProt Q9H093); conditions: Compound concentration 1000.0 nM
# [32] = target: Myosin light chain kinase, smooth muscle (Homo sapiens) (UniProt Q15746); conditions: Compound concentration 1000.0 nM
# [33] = target: Tyrosine-protein kinase Fer (Homo sapiens) (UniProt P16591); conditions: Compound concentration 1000.0 nM
# [34] = test system: Proto-oncogene tyrosine-protein kinase receptor Ret (Homo sapiens), P07949 [V804L]; conditions: Compound concentration 1000.0 nM
# [35] = test system: Proto-oncogene tyrosine-protein kinase receptor Ret (Homo sapiens), P07949 [M918T]; conditions: Compound concentration 1000.0 nM
# [36] = target: Homeodomain-interacting protein kinase 1 (Homo sapiens) (UniProt Q86Z02); conditions: Compound concentration 1000.0 nM
# [37] = target: Serine/threonine-protein kinase 24 (Homo sapiens) (UniProt Q9Y6E0); conditions: Compound concentration 1000.0 nM
# [38] = test system: Tyrosine-protein kinase ABL1 (Homo sapiens), P00519 [F317L]; conditions: Compound concentration 1000.0 nM
# [39] = target: Tyrosine-protein kinase receptor Tie-1 (Homo sapiens) (UniProt P35590); conditions: Compound concentration 1000.0 nM
# [40] = target: Atypical kinase COQ8A, mitochondrial (Homo sapiens) (UniProt Q8NI60); conditions: Compound concentration 1000.0 nM
# [41] = target: Serine/threonine-protein kinase SIK3 (Homo sapiens) (UniProt Q9Y2K2); conditions: Compound concentration 1000.0 nM
# [42] = target: Serine/threonine-protein kinase LATS2 (Homo sapiens) (UniProt Q9NRM7); conditions: Compound concentration 1000.0 nM
# [43] = target: Casein kinase I isoform gamma-2 (Homo sapiens) (UniProt P78368); conditions: Compound concentration 1000.0 nM
# [44] = target: Serine/threonine-protein kinase 17B (Homo sapiens) (UniProt O94768); conditions: Compound concentration 1000.0 nM
# [45] = target: D(2) dopamine receptor (Homo sapiens) (UniProt P14416); conditions: Compound concentration 10.0 uM
# Mitogen-activated protein kinase 4 (Homo sapiens), sequence (P31152 whole entry): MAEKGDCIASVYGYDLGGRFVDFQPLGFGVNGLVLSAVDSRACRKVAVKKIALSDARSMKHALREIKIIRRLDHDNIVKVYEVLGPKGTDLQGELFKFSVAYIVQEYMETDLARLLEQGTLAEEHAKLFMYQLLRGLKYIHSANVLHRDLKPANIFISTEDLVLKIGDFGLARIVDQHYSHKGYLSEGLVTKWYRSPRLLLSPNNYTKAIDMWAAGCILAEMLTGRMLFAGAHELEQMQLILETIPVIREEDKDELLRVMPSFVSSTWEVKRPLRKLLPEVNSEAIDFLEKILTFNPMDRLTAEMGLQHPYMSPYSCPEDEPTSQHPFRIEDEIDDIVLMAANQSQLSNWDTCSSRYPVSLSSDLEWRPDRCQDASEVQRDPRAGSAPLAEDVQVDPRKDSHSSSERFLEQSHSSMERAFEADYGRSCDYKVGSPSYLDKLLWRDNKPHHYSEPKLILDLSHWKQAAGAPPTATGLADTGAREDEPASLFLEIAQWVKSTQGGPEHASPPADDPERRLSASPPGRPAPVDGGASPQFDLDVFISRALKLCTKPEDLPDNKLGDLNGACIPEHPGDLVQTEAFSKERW
# Serine/threonine-protein kinase 24 (Homo sapiens), sequence (Q9Y6E0 whole entry, looked up): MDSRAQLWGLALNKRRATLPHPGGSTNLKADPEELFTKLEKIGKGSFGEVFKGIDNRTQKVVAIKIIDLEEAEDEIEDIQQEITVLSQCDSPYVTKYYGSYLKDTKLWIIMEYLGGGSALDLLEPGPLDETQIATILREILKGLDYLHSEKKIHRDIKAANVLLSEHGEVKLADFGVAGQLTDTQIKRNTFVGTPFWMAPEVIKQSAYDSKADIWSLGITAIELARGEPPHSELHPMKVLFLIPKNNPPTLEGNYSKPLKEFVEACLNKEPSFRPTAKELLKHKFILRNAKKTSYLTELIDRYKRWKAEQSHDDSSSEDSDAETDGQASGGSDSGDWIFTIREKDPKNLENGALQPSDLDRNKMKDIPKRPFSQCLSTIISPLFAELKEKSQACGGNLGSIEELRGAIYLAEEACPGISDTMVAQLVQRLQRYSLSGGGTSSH
# Protein kinase C delta type (Homo sapiens), sequence (Q05655 whole entry, looked up): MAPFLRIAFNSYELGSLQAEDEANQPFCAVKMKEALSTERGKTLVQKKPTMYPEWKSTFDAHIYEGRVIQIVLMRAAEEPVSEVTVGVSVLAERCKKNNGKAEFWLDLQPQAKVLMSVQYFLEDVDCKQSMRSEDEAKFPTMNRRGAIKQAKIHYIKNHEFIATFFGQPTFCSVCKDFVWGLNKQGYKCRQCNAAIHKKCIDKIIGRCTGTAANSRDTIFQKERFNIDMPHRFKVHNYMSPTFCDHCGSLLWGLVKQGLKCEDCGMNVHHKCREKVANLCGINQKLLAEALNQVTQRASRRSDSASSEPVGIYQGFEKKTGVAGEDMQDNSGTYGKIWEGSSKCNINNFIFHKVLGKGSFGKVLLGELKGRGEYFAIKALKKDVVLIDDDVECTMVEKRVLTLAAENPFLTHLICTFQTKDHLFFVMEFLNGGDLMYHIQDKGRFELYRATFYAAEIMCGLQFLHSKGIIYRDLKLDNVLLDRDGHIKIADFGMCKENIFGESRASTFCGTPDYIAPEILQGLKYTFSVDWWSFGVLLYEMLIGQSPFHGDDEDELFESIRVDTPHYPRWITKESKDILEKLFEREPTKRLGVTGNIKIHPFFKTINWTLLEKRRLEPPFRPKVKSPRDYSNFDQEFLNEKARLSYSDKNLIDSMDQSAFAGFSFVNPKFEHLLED
# 5-hydroxytryptamine receptor 3A (Homo sapiens), sequence (P46098 whole entry): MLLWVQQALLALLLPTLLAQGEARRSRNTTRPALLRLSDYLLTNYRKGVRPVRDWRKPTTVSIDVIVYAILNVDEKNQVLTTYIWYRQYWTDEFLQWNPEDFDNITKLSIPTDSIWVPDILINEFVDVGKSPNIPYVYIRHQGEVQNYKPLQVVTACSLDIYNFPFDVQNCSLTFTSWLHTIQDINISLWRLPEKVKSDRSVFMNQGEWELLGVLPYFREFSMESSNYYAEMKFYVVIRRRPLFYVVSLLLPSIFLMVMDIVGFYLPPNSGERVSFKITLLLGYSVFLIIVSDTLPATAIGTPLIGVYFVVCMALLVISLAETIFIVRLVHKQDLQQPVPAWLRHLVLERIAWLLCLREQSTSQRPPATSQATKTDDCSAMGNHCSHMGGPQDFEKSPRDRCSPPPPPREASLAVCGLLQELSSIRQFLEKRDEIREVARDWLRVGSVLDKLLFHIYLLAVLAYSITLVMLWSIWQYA
# Proto-oncogene tyrosine-protein kinase receptor Ret (Homo sapiens), P07949 [V804L], sequence (P07949 whole entry V804L): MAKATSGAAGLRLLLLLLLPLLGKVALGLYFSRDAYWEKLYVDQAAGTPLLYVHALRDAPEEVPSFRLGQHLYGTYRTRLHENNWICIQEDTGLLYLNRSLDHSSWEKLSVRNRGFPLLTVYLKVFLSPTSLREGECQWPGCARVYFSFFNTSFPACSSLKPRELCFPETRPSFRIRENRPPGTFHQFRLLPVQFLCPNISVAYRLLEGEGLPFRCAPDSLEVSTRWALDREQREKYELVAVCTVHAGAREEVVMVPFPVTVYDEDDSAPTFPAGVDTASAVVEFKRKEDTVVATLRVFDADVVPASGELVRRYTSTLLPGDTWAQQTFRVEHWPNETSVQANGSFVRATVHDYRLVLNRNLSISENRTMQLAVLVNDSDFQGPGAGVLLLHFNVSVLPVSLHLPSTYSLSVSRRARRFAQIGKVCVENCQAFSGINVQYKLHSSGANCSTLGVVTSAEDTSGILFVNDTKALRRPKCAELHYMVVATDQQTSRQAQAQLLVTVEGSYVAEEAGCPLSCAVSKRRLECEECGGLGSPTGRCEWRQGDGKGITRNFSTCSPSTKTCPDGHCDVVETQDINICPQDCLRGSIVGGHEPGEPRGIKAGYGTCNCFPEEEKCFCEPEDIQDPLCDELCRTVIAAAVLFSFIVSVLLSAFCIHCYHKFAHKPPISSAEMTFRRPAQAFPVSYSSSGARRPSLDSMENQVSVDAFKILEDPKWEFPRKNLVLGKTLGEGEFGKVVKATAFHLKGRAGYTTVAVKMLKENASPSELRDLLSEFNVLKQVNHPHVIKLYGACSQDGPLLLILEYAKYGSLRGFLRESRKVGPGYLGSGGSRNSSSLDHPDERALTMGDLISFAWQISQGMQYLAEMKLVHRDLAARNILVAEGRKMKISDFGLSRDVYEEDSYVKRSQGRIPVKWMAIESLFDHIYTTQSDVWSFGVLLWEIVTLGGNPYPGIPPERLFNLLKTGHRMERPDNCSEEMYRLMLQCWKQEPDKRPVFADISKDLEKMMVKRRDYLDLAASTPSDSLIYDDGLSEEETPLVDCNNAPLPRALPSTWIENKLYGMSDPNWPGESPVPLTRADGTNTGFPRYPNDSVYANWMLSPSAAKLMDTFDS
# Serine/threonine-protein kinase tousled-like 1 (Homo sapiens), sequence (Q9UKI8 whole entry): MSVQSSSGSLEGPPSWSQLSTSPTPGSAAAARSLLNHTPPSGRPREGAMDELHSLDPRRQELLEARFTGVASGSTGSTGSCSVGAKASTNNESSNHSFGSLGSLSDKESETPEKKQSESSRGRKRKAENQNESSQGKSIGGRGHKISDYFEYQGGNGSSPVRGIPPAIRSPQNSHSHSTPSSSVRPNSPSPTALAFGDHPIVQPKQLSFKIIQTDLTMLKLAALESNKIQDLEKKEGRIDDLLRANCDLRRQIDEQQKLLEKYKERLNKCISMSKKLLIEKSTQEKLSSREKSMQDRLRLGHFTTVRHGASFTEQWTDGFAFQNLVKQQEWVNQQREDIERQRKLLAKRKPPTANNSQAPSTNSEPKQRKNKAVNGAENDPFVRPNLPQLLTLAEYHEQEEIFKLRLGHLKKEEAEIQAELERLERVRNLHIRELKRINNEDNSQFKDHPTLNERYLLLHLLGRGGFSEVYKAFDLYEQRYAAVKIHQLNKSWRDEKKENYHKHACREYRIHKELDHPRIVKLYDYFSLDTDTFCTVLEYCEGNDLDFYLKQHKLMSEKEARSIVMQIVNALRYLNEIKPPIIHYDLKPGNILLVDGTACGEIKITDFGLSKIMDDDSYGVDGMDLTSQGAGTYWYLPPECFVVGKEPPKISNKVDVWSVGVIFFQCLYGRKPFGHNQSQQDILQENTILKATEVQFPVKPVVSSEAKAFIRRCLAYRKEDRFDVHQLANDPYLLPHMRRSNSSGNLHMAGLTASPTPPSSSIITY
# Serine/threonine-protein kinase D1 (Homo sapiens), sequence (Q15139 whole entry): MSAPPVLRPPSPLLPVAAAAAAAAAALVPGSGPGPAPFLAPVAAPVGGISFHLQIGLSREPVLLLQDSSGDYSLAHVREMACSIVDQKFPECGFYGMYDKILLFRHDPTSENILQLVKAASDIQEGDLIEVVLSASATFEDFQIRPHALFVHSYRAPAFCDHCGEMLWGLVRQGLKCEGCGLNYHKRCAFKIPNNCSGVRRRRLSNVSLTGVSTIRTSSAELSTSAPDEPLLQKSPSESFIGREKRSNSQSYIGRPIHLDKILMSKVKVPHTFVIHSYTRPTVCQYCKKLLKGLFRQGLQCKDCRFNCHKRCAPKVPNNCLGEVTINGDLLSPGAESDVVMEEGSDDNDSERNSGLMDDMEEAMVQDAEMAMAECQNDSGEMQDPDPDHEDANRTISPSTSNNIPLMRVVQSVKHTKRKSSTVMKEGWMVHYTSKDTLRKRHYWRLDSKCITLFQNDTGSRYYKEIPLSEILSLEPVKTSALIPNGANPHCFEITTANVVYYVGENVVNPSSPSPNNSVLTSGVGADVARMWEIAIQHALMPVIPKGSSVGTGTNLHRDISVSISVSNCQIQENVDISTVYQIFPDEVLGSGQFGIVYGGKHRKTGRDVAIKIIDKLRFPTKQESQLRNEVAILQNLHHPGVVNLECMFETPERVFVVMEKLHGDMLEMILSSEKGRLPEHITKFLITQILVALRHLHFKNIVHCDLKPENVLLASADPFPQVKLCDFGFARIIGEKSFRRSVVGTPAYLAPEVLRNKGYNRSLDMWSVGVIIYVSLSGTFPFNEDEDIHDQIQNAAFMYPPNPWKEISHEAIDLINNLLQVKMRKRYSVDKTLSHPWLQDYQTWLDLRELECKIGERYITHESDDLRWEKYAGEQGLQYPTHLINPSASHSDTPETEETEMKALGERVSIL
# Proto-oncogene tyrosine-protein kinase receptor Ret (Homo sapiens), P07949 [M918T], sequence (P07949 whole entry M918T): as the sequence (P07949 whole entry V804L) above, with L804V, M918T counted along it
structure (smiles),measurement,setting,value
CO[C@@H](C)c1c(Nc2ccc([C@@H](N(C)C(=O)C3CCS(=O)(=O)CC3)C(F)(F)F)cc2)cnc2cc(Cl)nn12 [NVS-MALT1-C],residual activity,[1],98%
same,inhibition,[2],12.9%
same,residual activity,[3],100%
same,residual activity,[4],90%
same,residual activity,[5],100%
same,inhibition,Rattus norvegicus,5.14%
same,residual activity,[6],100%
same,residual activity,[7],100%
same,residual activity,[8],100%
same,residual activity,[9],85%
same,residual activity,[10],100%
same,residual activity,[11],98%
same,inhibition,[12],11.4%
same,residual activity,[13],76%
same,inhibition,[14],-1.2%
same,residual activity,[15],99%
same,residual activity,[16],84%
same,residual activity,[17],92%
same,residual activity,[18],95%
same,residual activity,[19],83%
same,residual activity,[20],94%
same,residual activity,[21],96%
same,residual activity,[22],85%
same,inhibition,[23],4.72%
same,residual activity,[24],100%
same,residual activity,[25],75%
same,residual activity,[26],100%
same,residual activity,[27],100%
same,residual activity,[28],52%
same,residual activity,[29],87%
same,residual activity,[30],90%
same,residual activity,[31],100%
same,residual activity,[32],98%
same,residual activity,[33],89%
same,residual activity,[34],78%
same,residual activity,[35],85%
same,residual activity,[36],56%
same,residual activity,[37],89%
same,residual activity,[38],89%
same,residual activity,[39],96%
same,residual activity,[40],100%
same,residual activity,[41],100%
same,residual activity,[42],88%
same,residual activity,[43],84%
same,residual activity,[44],98%
same,inhibition,[45],-4.3%
CO[C@@H](C)c1c(Nc2ccc([C@H](N(C)C(=O)C3CCS(=O)(=O)CC3)C(F)(F)F)cc2)cnc2cc(Cl)nn12 [NVS-MALT1],residual activity,[1],99%
same,inhibition,[2],15.4%
same,residual activity,[3],93%
same,residual activity,[4],91%
same,residual activity,[5],100%
same,inhibition,Rattus norvegicus,11.6%
same,residual activity,[6],100%
same,residual activity,[7],100%
same,residual activity,[8],100%
same,residual activity,[9],77%
same,residual activity,[10],94%
same,residual activity,[11],100%
same,inhibition,[12],12.5%
same,residual activity,[13],92%
same,inhibition,[14],-6.2%
same,residual activity,[15],98%
same,residual activity,[16],87%
same,residual activity,[17],85%
same,residual activity,[18],93%
same,residual activity,[19],99%
same,residual activity,[20],99%
same,residual activity,[21],93%
same,residual activity,[22],100%
same,inhibition,[23],9.7%
same,residual activity,[24],100%
same,residual activity,[25],78%
same,residual activity,[26],100%
same,residual activity,[27],100%
same,residual activity,[28],59%
same,residual activity,[29],99%
same,residual activity,[30],79%
same,residual activity,[31],100%
same,residual activity,[32],95%
same,residual activity,[33],88%
same,residual activity,[34],86%
same,residual activity,[35],95%
same,residual activity,[36],40%
same,residual activity,[37],83%
same,residual activity,[38],89%
same,residual activity,[39],92%
same,residual activity,[40],100%
same,residual activity,[41],100%
same,residual activity,[42],100%
same,residual activity,[43],93%
same,residual activity,[44],99%
same,inhibition,[45],4.1%
